Test results as given in US20240358693A1, “METHODS OF TREATING PAIN” (Aisa Pharma, Inc., priority 2023, published 2024).

Tested on: participants with SSc-RP
Assay: Scleroderma Health Assessment Questionnaire (SHAQ): disability indices and visual analog scales
Format: in vivo, human
Details: Part A, sensitivity analysis
From the text: The standard, validated, patient reported outcome measures tool for SSc patients, the Scleroderma Health Assessment Questionnaire (SHAQ), will be used to assess the participant qualify of life. Details are attached in the Appendix. The participant quality of life will be scored, and a disability index calculated for each questionnaire completed by the patient at Screening and each in-clinic visit. The absolute change in participant quality of life from baseline to the end of each dosing period will be calculated similar to frequency data as before.
The SHAQ includes a Raynaud's VAS, which will be reported at screening and each in-clinic visit. The absolute change in Raynaud-VAS, assessed by the participants response to the SHAQ question ‘In the past 7 days, how much have your Raynaud's interfered with your daily activities?’ at baseline and the end of each dosing period will be calculated similar to frequency data as before.
The SHAQ is used to calculate a Disability Index to assess the participant qualify of life. The eight categories assessed by the Disability Index are 1) dressing and grooming, 2) arising, 3) eating, 4) walking, 5) hygiene, 6) reach, 7) grip, and 8) common daily activities. For each of these categories, patients report the amount of difficulty they have in performing two or three specific activities.
There are four possible responses for the Disability Index questions: • Without any difficulty=0 • With some difficulty=1 • With much difficulty=2 • Unable to do=3. • The highest score reported by the patient for any component question of the eight categories determines the score for that category. • If a component question is left blank or the response is too ambiguous to assign a score, then the score for that category is determined by the remaining completed question(s). • If all component questions are blank or if more than one answer is given, then follow up with the respondent is required. • If the respondent's mark is between the response columns, then move it to the closest one. If it's directly between the two, move it to the higher one.
Each of the disability items on the SHAQ has a companion aids/devices variable that is used to record what type(s) of assistance, if any, the participant uses for his/her usual activities. These variables (see below) are coded as follows: • 0=No assistance is needed. • 1=A special device is used by the patient in his/her usual activities. • 2=The patient usually needs help from another person. • 3=The patient usually needs BOTH a special device AND help from another person.
The scoring variables and scoring rules permit the computation of two disability indices, the Standard Disability Index and the Alternative Disability Index.
This question results in a new set of category scores that are computed by adjusting the score for each category, if necessary, based on the patient's use of an aid or device or assistance for that category. If either devices and/or help from another person are checked for a category, the score is set to “2”, unless the score is already “3” (i.e., scores of “0” or “1” are increased to “2”). For example, if the highest score for the dressing category is “1”, and the patient says they use a device for dressing, the computed category score would be “2”. The sum of the computed categories scores is then calculated and divided by the number of categories answered. This gives a score in the 0 to 3 range.
The aid and device variables are not used to calculate the alternative disability index; it is calculated by adding the scores for each of the categories and dividing by the number of categories answered. This gives a score in the 0 to 3 range.
The standard, validated, patient reported outcome measures tool for SSc patients, the SHAQ, was collected at the time points specified in the study schedules (FIG. 2 and FIGS. 4A and 4B) to assess the participant's quality of life. The SHAQ included a Raynaud's VAS that will also be reported separately.

[1] = PP Population, cilnidipine 10 mg and/or tadalafil 5 mg as labelled
[2] = PP Population, cilnidipine 20 mg, plus tadalafil 5 mg where labelled
[3] = PP Population, pooled cilnidipine 10 mg and 20 mg arms (plus tadalafil 5 mg where labelled)
[4] = Pooled Cilnidipine 10 mg and Cilnidipine 10 mg + Tadalafil 5 mg (N = 9), Modified ITT

## COCCOC(=O)C1=C(C)NC(C)=C(C(=O)OC/C=C/c2ccccc2)C1c1cccc([N+](=O)[O-])c1 (stereo not drawn) [Cilnidipine, cilnidipine]
[1]
  SHAQ Visual Analogue Scale - Intestinal Problems: Change from Baseline (Day 12), Median: −1.550
  SHAQ Visual Analogue Scale - Intestinal Problems: In-Clinic Visit (Day 12), Mean: 1.100
  SHAQ Visual Analogue Scale - Intestinal Problems: In-Clinic Visit (Day 12), Median: 0.300
  SHAQ Visual Analogue Scale - Intestinal Problems: Percent Change from Baseline (Day 12), Mean: −77.37%
  SHAQ Visual Analogue Scale - Intestinal Problems: Percent Change from Baseline (Day 12), Median: −88.00%
  SHAQ Visual Analogue Scale - Overall Disease Severity: Baseline, Mean: 2.725
  SHAQ Visual Analogue Scale - Overall Disease Severity: Baseline, Median: 1.900
  SHAQ Visual Analogue Scale - Overall Disease Severity: Change from Baseline (Day 12), Mean: −0.900
  SHAQ Visual Analogue Scale - Overall Disease Severity: Change from Baseline (Day 12), Median: −0.950
  SHAQ Visual Analogue Scale - Overall Disease Severity: In-Clinic Visit (Day 12), Mean: 1.825
  SHAQ Visual Analogue Scale - Overall Disease Severity: In-Clinic Visit (Day 12), Median: 1.050
  SHAQ Visual Analogue Scale - Overall Disease Severity: Percent Change from Baseline (Day 12), Mean: −56.96%
  SHAQ Visual Analogue Scale - Overall Disease Severity: Percent Change from Baseline (Day 12), Median: −44.12%
  SHAQ Visual Analogue Scale - Raynaud's: Baseline, Mean: 1.600
  SHAQ Visual Analogue Scale - Raynaud's: Baseline, Median: 1.000
  SHAQ Visual Analogue Scale - Raynaud's: Change from Baseline (Day 12), Mean: 0.325
  SHAQ Visual Analogue Scale - Raynaud's: Change from Baseline (Day 12), Median: 0.350
  SHAQ Visual Analogue Scale - Raynaud's: In-Clinic Visit (Day 12), Mean: 1.925
  SHAQ Visual Analogue Scale - Raynaud's: In-Clinic Visit (Day 12), Median: 1.700
  SHAQ Visual Analogue Scale - Raynaud's: Percent Change from Baseline (Day 12), Mean: 11.36%
  SHAQ Visual Analogue Scale - Raynaud's: Percent Change from Baseline (Day 12), Median: −2.27%
[2]
  SHAQ Visual Analogue Scale - Breathing Problems: Baseline, Mean: 1.325
  SHAQ Visual Analogue Scale - Breathing Problems: Baseline, Median: 1.550
  SHAQ Visual Analogue Scale - Breathing Problems: Change from Baseline (Day 12), Mean: −0.475
  SHAQ Visual Analogue Scale - Breathing Problems: Change from Baseline (Day 12), Median: −0.250
  SHAQ Visual Analogue Scale - Breathing Problems: In-Clinic Visit (Day 12), Mean: 0.850
  SHAQ Visual Analogue Scale - Breathing Problems: In-Clinic Visit (Day 12), Median: 0.450
  SHAQ Visual Analogue Scale - Breathing Problems: Percent Change from Baseline (Day 12), Mean: 3.73%
  SHAQ Visual Analogue Scale - Breathing Problems: Percent Change from Baseline (Day 12), Median: −17.54%
  SHAQ Visual Analogue Scale - Finger Ulcers: Baseline, Mean: 1.800
  SHAQ Visual Analogue Scale - Finger Ulcers: Baseline, Median: 0.300
  SHAQ Visual Analogue Scale - Finger Ulcers: Change from Baseline (Day 12), Mean: −0.933
  SHAQ Visual Analogue Scale - Finger Ulcers: Change from Baseline (Day 12), Median: 0.000
  SHAQ Visual Analogue Scale - Finger Ulcers: In-Clinic Visit (Day 12), Mean: 0.650
  SHAQ Visual Analogue Scale - Finger Ulcers: In-Clinic Visit (Day 12), Median: 0.350
  SHAQ Visual Analogue Scale - Finger Ulcers: Percent Change from Baseline (Day 12), Mean: 35.29%
  SHAQ Visual Analogue Scale - Finger Ulcers: Percent Change from Baseline (Day 12), Median: 35.29%
  SHAQ Visual Analogue Scale - Intestinal Problems: Baseline, Mean: 0.700
  SHAQ Visual Analogue Scale - Intestinal Problems: Baseline, Median: 0.650
  SHAQ Visual Analogue Scale - Intestinal Problems: Change from Baseline (Day 12), Mean: 0.150
  SHAQ Visual Analogue Scale - Intestinal Problems: Change from Baseline (Day 12), Median: 0.150
  SHAQ Visual Analogue Scale - Intestinal Problems: In-Clinic Visit (Day 12), Mean: 0.850
  SHAQ Visual Analogue Scale - Intestinal Problems: In-Clinic Visit (Day 12), Median: 0.650
  SHAQ Visual Analogue Scale - Intestinal Problems: Percent Change from Baseline (Day 12), Mean: −10.00%
  SHAQ Visual Analogue Scale - Intestinal Problems: Percent Change from Baseline (Day 12), Median: 30.00%
  SHAQ Visual Analogue Scale - Overall Disease Severity: Baseline, Mean: 3.125
  SHAQ Visual Analogue Scale - Overall Disease Severity: Baseline, Median: 2.950
  SHAQ Visual Analogue Scale - Overall Disease Severity: Change from Baseline (Day 12), Mean: −2.000
  SHAQ Visual Analogue Scale - Overall Disease Severity: Change from Baseline (Day 12), Median: −1.700
  SHAQ Visual Analogue Scale - Overall Disease Severity: In-Clinic Visit (Day 12), Mean: 1.125
  SHAQ Visual Analogue Scale - Overall Disease Severity: In-Clinic Visit (Day 12), Median: 1.300
  SHAQ Visual Analogue Scale - Overall Disease Severity: Percent Change from Baseline (Day 12), Mean: −64.20%
  SHAQ Visual Analogue Scale - Overall Disease Severity: Percent Change from Baseline (Day 12), Median: −64.44%
  SHAQ Visual Analogue Scale - Raynaud's: Baseline, Mean: 3.075
  SHAQ Visual Analogue Scale - Raynaud's: Baseline, Median: 3.000
  SHAQ Visual Analogue Scale - Raynaud's: Change from Baseline (Day 12), Mean: −1.200
  SHAQ Visual Analogue Scale - Raynaud's: Change from Baseline (Day 12), Median: −1.050
  SHAQ Visual Analogue Scale - Raynaud's: In-Clinic Visit (Day 12), Mean: 1.875
  SHAQ Visual Analogue Scale - Raynaud's: In-Clinic Visit (Day 12), Median: 1.250
  SHAQ Visual Analogue Scale - Raynaud's: Percent Change from Baseline (Day 12), Mean: −41.11%
  SHAQ Visual Analogue Scale - Raynaud's: Percent Change from Baseline (Day 12), Median: −38.67%
[3]
  SHAQ Alternative Disability Index: Baseline, Mean: 0.359
  SHAQ Alternative Disability Index: Baseline, Median: 0.250
  SHAQ Alternative Disability Index: Change from Baseline (Day 12), Mean: 0.031
  SHAQ Alternative Disability Index: Change from Baseline (Day 12), Median: 0.000
  SHAQ Alternative Disability Index: In-Clinic Visit (Day 12), Mean: 0.391
  SHAQ Alternative Disability Index: In-Clinic Visit (Day 12), Median: 0.188
  SHAQ Alternative Disability Index: Percent Change from Baseline (Day 12), Mean: 9.68%
  SHAQ Alternative Disability Index: Percent Change from Baseline (Day 12), Median: −11.11%
[4]
  SHAQ Standard Disability Index: Baseline, Mean: 0.597
  SHAQ Standard Disability Index: Baseline, Median: 0.500
  SHAQ Standard Disability Index: Change from Baseline, Mean: −0.021
  SHAQ Standard Disability Index: Change from Baseline, Median: 0.000
  SHAQ Standard Disability Index: Day 12, Mean: 0.576
  SHAQ Standard Disability Index: Day 12, Median: 0.375
  SHAQ Standard Disability Index: Percent Change from Baseline, Mean: 7.50%
  SHAQ Standard Disability Index: Percent Change from Baseline, Median: 0.00%
  SHAQ VAS Breathing Problems: Baseline, Mean: 1.511
  SHAQ VAS Breathing Problems: Baseline, Median: 0.800
  SHAQ VAS Breathing Problems: Change from Baseline, Mean: −0.175
  SHAQ VAS Breathing Problems: Change from Baseline, Median: 0.000
  SHAQ VAS Breathing Problems: Day 12, Mean: 1.375
  SHAQ VAS Breathing Problems: Day 12, Median: 0.000
  SHAQ VAS Breathing Problems: Percent Change from Baseline, Mean: −26.05%
  SHAQ VAS Breathing Problems: Percent Change from Baseline, Median: −21.33%
  SHAQ VAS Finger Ulcers: Baseline, Mean: 0.656
  SHAQ VAS Finger Ulcers: Baseline, Median: 0.200
  SHAQ VAS Finger Ulcers: Change from Baseline, Mean: −0.267
  SHAQ VAS Finger Ulcers: Change from Baseline, Median: −0.100
  SHAQ VAS Finger Ulcers: Day 12, Mean: 0.389
  SHAQ VAS Finger Ulcers: Day 12, Median: 0.000
  SHAQ VAS Finger Ulcers: Percent Change from Baseline, Mean: −46.06%
  SHAQ VAS Finger Ulcers: Percent Change from Baseline, Median: −31.94%
  SHAQ VAS Intestinal Problems: Baseline, Mean: 2.444
  SHAQ VAS Intestinal Problems: Baseline, Median: 1.100
  SHAQ VAS Intestinal Problems: Change from Baseline, Mean: −1.228
  SHAQ VAS Intestinal Problems: Change from Baseline, Median: −0.250
  SHAQ VAS Intestinal Problems: Day 12, Mean: 1.217
  SHAQ VAS Intestinal Problems: Day 12, Median: 0.700
  SHAQ VAS Intestinal Problems: Percent Change from Baseline, Mean: −27.93%
  SHAQ VAS Intestinal Problems: Percent Change from Baseline, Median: −54.13%
  SHAQ VAS Overall Disease Severity: Baseline, Mean: 3.044
  SHAQ VAS Overall Disease Severity: Baseline, Median: 1.900
  SHAQ VAS Overall Disease Severity: Change from Baseline, Mean: −0.606
  SHAQ VAS Overall Disease Severity: Change from Baseline, Median: −0.700
  SHAQ VAS Overall Disease Severity: Day 12, Mean: 2.439
  SHAQ VAS Overall Disease Severity: Day 12, Median: 1.900
  SHAQ VAS Overall Disease Severity: Percent Change from Baseline, Mean: −24.68%
  SHAQ VAS Overall Disease Severity: Percent Change from Baseline, Median: −30.93%
  SHAQ VAS Pain: Baseline, Mean: 3.278
  SHAQ VAS Pain: Baseline, Median: 3.100
  SHAQ VAS Pain: Change from Baseline, Mean: −0.633
  SHAQ VAS Pain: Change from Baseline, Median: −0.700
  SHAQ VAS Pain: Day 12, Mean: 2.644
  SHAQ VAS Pain: Day 12, Median: 2.900
  SHAQ VAS Pain: Percent Change from Baseline, Mean: −20.07%
  SHAQ VAS Pain: Percent Change from Baseline, Median: −21.87%
  SHAQ VAS Raynaud's: Baseline, Mean: 2.733
  SHAQ VAS Raynaud's: Baseline, Median: 1.400
  SHAQ VAS Raynaud's: Change from Baseline, Mean: −0.414
  SHAQ VAS Raynaud's: Change from Baseline, Median: −0.100
  SHAQ VAS Raynaud's: Day 12, Mean: 2.319
  SHAQ VAS Raynaud's: Day 12, Median: 2.600
